From patent EP0747380B1, “Compounds and compositions with nitrogen-containing non-basic side chains” (ELI LILLY AND COMPANY, priority 1995, dated 1996)
Values joined by “and” are separate entries in the source; they are usually repeats but may differ in a detail not shown here. Identical values can stand only once.

How the values were obtained:
uterus = test: Uterine wet weight, post-menopausal (OVX) rat model, four day dosing regimen; assay type: in vivo, female Sprague Dawley rats; conditions: oral, daily for 4 days, OVX rats, * = significantly different than OVX control
Experimental: In the examples illustrating the methods, a post-menopausal model was used in which effects of different treatments upon various biological parameters were determined, including serum cholesterol concentration, uterine weight, eosinophil peroxidase activity, MCF-7 cell proliferation, and bone density.
(§1) Animals were dosed daily for 4 days. […] A blood sample was collected by cardiac puncture.

serum cholesterol = test: Serum cholesterol analysis, OVX rat, four day dosing regimen; assay type: in vivo, female Sprague Dawley rats; conditions: oral, daily for 4 days, OVX rats, * = significantly different than OVX control; for inhibition in vivo at 0.1 mg/kg / inhibition in vivo at 1 mg/kg / inhibition in vivo at 10 mg/kg: Rattus norvegicus, 96 h, read-out: Serum Cholesterol (% dec. OVX)
Experimental: as §1
Blood samples were allowed to clot at room temperature for 2 hours, and serum was obtained following centrifugation for 10 minutes at 3000 rpm. Serum cholesterol was determined using a Boehringer Mannheim Diagnostics high performance cholesterol assay. Briefly the cholesterol was oxidized to cholest-4-en-3-one and hydrogen peroxide. The hydrogen peroxide was then reacted with phenol and 4-aminophenazone in the presence of peroxidase to produce a p-quinone imine dye, which was read spectrophotemetrically at 500 nm. Cholesterol concentration was then calculated against a standard curve. The entire assay was automated using a Biomek Automated Workstation.

[1] = system: MCF-7 breast adenocarcinoma cells; test: MCF-7 proliferation assay (tritiated thymidine incorporation); assay type: cell-based; conditions: Homo sapiens, MCF7; MCF-7 cells, 48 hours with drug, tritiated thymidine pulse 4 hours; read-out: ED50 (the source's name)
Experimental: MCF-7 breast adenocarcinoma cells (ATCC HTB 22) were maintained in MEM (minimal essential medium, phenol red-free, Sigma, St. Louis, MO) supplemented with 10% fetal bovine serum (FBS) (V/V), L-glutamine (2 mM), sodium pyruvate (1 mM), HEPES {(N-[2-hydroxyethyl]piperazine-N'-[2-ethanesulfonic acid]10 mM}, non-essential amino acids and bovine insulin (1 µg/ml) (maintenance medium). Ten days prior to assay, MCF-7 cells were switched to maintenance medium supplemented with 10% dextrancoated charcoal stripped fetal bovine serum (DCC-FBS) assay medium) in place of 10% FBS to deplete internal stores of steroids. MCF-7 cells were removed from maintenance flasks using cell dissociation medium (Ca++/Mg++ free HBSS (phenol red-free) supplemented with 10 mM HEPES and 2 mM EDTA). Cells were washed twice with assay medium and adjusted to 80,000 cells/ml. […] Serial dilutions of drugs or DMSO as a diluent control were prepared in assay medium and […] to triplicate microcultures followed by 50 ml assay medium for a final volume of […]. After an additional 48 hours at 37° C in a 5% CO2 humidified incubator, microcultures were pulsed with tritiated thymidine (1 uCi/well) for 4 hours. Cultures were terminated by freezing at -70° C for 24 hours followed by thawing and harvesting of microcultures. Samples were counted by liquid scintillation.

[2] = system: eosinophil peroxidase activity; test: Uterine eosinophil peroxidase (EPO) assay, OVX rat, four day dosing regimen; conditions: oral, daily for 4 days, OVX rats, * = significantly different than OVX control
Source text: Seventy-five day old female Sprague Dawley rats (weight range of 200 to 225 g) were obtained from Charles River Laboratories (Portage, MI). The animals were either bilaterally ovariectomized (OVX) or exposed to a sham surgical procedure (Intact) at Charles River Laboratories, and then shipped after one week. Upon arrival, they were housed in metal hanging cages in groups of 3 or 4 per cage and had ad libitum access to food (calcium content approximately 0.5%) and water for one week. […] The photoperiod in the room was 12 hours light and 12 hours dark.
After a one week acclimation period (therefore, two weeks post-OVX), daily dosing with test compound was initiated. 17α-Ethynyl estradiol (EE2) (Sigma Chemical Co., St. Louis, MO), an orally available form of estrogen, or the test compound were given orally, unless otherwise stated, as a suspension in 1% carboxymethyl cellulose or dissolved in 20% cyclodextrin. Animals were dosed daily for 4 days. Following the dosing regimen, animals were weighed and anesthetized with a ketamine:xylazine (2:1, v:v) mixture. A blood sample was collected by cardiac puncture. The animals were then sacrificed by asphyxiation with CO2, the uterus was removed through a midline incision, and a wet uterine weight was determined.
Uteri were kept at 4° C until time of enzymatic analysis. The uteri were then homogenized in 50 volumes of 50 mM Tris buffer (pH - 8.0) containing 0.005% Triton X-100. Upon addition of 0.01% hydrogen peroxide and 10 mM o-phenylenediamine (final concentrations) in Tris buffer, increase in absorbance was monitored for one minute at 450 nm. […] The maximal velocity of a 15 second interval was determined over the initial, linear portion of the reaction curve.

SMILES | Uterine Weight (% inc. OVX) (uterus; Dose 0.1 mg/kg) | Uterine Weight (% inc. OVX) (uterus; Dose 1 mg/kg) | Uterine Weight (% inc. OVX) (uterus; Dose 10 mg/kg) | inhibition in vivo at 0.1 mg/kg (serum cholesterol; Dose 0.1 mg/kg) | inhibition in vivo at 1 mg/kg (serum cholesterol; Dose 1 mg/kg) | inhibition in vivo at 10 mg/kg (serum cholesterol; Dose 10 mg/kg) | EC50 [1] | Uterine EPO (Vmax) ([2]; Dose 0.1 mg/kg) | Uterine EPO (Vmax) ([2]; Dose 1 mg/kg) | Uterine EPO (Vmax) ([2]; Dose 10 mg/kg) | Serum Cholesterol (% dec. OVX) (serum cholesterol; Dose 0.1 mg/kg) | Serum Cholesterol (% dec. OVX) (serum cholesterol; Dose 1 mg/kg) | Serum Cholesterol (% dec. OVX) (serum cholesterol; Dose 10 mg/kg) | Uterine EPO (Vmax) ([2]; Dose 0.01 mg/kg)
O=C(c1ccc(OCCN2CCCCC2=O)cc1)c1c(-c2ccc(O)cc2)sc2cc(O)ccc12 [Compound 3] | 13.3% | 17.8% | 57.6* % | 38.1% | 45.8% | 72.4% | 600 nM | 8.0 | 7.8 | 8.9 |  |  |  | 
O=C(c1ccc(OCCN2CCCC2=O)cc1)c1c(-c2ccc(O)cc2)sc2cc(O)ccc12 [Compound 6] | -9% | 15.4% | 40.3* % | 33.6% | 52.4% | 67.5% |  | 3.6 | 1.4 | 3.7 |  |  |  | 
COc1ccc(-c2sc3cc(OC)ccc3c2C(=O)c2ccc(OCC(=O)N3CCCCC3)cc2)cc1 [Compound 7] | -0.5% | -16.2% | 8.4% |  |  |  |  | 5.2 | 3.7 | 4.7 |  |  |  | 
O=C(c1ccc(OCC(=O)N2CCCC2)cc1)c1c(-c2ccc(O)cc2)sc2cc(O)ccc12 [Compound 8] |  |  |  |  |  |  | 10 nM | 3.6 and 4.4 | 6.1 and 3.7 |  | 25.8% | 69.6* % and 39.4* % | 64.5* % | 3.5
O=C(c1ccc(OCC(=O)N2CCCCC2)cc1)c1c(-c2ccc(O)cc2)sc2cc(O)ccc12 [Compound 9] | -10.0% | 6.5% | 51.7* % | 4.2% | 22% | 74.3% | 10 nM | 2.8 | 3.6 | 32 |  |  |  | 
CCCCN(C)C(=O)COc1ccc(C(=O)c2c(-c3ccc(O)cc3)sc3cc(O)ccc23)cc1 [Compound 10] | 1.5% | -6.7% | 38.0* % | -40% | 19.1% | 67.1% | 50 nM | 4.3 | 3.1 | 17.0 |  |  |  | 
CN(C)C(=O)COc1ccc(C(=O)c2c(-c3ccc(O)cc3)sc3cc(O)ccc23)cc1 [Compound 12] | -7.7% | 15.4% | 60.7* % | 27.8% | 48.2% | 71.2% |  | 3.7 | 6.7 | 122.3* |  |  |  | 
O=C(c1ccc(OCCN2C(=O)CCC2=O)cc1)c1c(-c2ccc(O)cc2)sc2cc(O)ccc12 [Compound 13] | 22.2% | 7.2% | -4.0% | 37.6% | 12.6% | 30.1% | > 1000 nM | 1.9 | 1.7 | 2.5 |  |  |  | 
N#CCOc1ccc(C(=O)c2c(-c3ccc(O)cc3)sc3cc(O)ccc23)cc1 [Compound 14] | 18.8% | 14.6% |  | 3.3% | 23.7% |  | 0.05 nM | 3.3 | 2.4 |  |  |  |  | 
